The text below walks through data of patent US20260240805A1, “ENTACTOGEN-ASSISTED THERAPY FOR ALCOHOL USE DISORDER AND ADDICTION-RELATED CONDITIONS AND COMORBIDITIES” (Solvonis Therapeutics Ireland Holdings Limited, priority 2021, published 2026).

The subject of one series is AUD. The note with it: early uncontrolled studies; cited from earlier work.
Series [1] has as its system patients with AUD. Put plainly: Drinking behavior (TLFB, units of alcohol per week), open-label MDMA-assisted therapy study in AUD post-detox (Example 8). Format: in vivo, human.
For series [2], the system named is patients with AUD. Put plainly: Profile Of Mood States (POMS), seven-day follow-up after MDMA sessions (Example 8). The note with it: daily for seven days after each MDMA session; 14 participants, 26 sessions. Type of series: in vivo, human. From the text:
(§1) Following the end of the eight-week therapeutic course, participants carried out additional follow-up questionnaires.
Seven-day follow-up after MDMA sessions: Considerable medical literature and the popular press report the anecdotal observation of ecstasy users experiencing an acute ‘come-down’ effect and a drop in mood in the days after using the drug recreationally. In order to measure this prospectively with clinical MDMA, we measured participants' mood states by daily Profile Of Mood States (POMS) measurements for seven days after each MDMA session (see FIG. 9). Positive scores represent depressed affect, zero represents no change in mood/affect and results below zero represent a positively felt mood.

The conditions of series [3]: cited from earlier work.
The conditions of series [4]: cited from earlier work. This is another data set of the same source.
Series [5] relates to patients with AUD. Put plainly: Suicidality, C-SSRS (Example 8). Format: in vivo, human. The note with it: during the course of the study.
Excerpt: as §1
Suicidality. Participants underwent the C-SSRS at screening, baseline, throughout the eight-week therapy course, in the week after each MDMA session and at the three-, six-, and nine-month follow-up visits.

For series [6], the system named is patients with AUD. Put plainly: Adverse events and tolerability (Example 8). Type of series: in vivo, human. On the procedure:
This Example details an open-label, within-subjects, safety and tolerability feasibility study that was conducted in 14 patients aged 18-65 years old diagnosed with AUD who had recently undergone detoxification, and received MDMA-assisted therapy.
(§2) Dosing with MDMA occurred twice during the eight-week course on weeks 3 and 6.

For a further series, the target named is CYP3A4 (Homo sapiens, UniProt P08684). The note with it: single dose of MDMA of 1.5 mg/kg; cited from earlier work.
Chain of CYP3A4 (P08684 whole entry): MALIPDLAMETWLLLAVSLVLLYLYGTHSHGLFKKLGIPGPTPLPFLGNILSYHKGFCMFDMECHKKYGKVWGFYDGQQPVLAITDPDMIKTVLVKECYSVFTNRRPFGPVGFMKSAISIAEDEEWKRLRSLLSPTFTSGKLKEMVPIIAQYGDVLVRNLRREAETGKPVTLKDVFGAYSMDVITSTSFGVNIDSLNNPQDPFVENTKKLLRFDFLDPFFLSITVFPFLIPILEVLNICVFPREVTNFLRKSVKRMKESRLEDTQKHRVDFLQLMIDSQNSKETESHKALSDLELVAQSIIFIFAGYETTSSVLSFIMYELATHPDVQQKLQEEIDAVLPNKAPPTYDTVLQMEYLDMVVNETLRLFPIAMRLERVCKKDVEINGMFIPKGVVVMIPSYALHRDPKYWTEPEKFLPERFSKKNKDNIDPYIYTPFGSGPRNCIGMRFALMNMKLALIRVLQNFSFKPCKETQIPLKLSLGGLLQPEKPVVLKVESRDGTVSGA
For series [7], the system named is patients with AUD. Briefly: Physiological measures, SUDS and Drug Effects during MDMA sessions (Example 8). Type of series: in vivo, human. On the procedure:
as §2
Physiological and tolerability effects during MDMA sessions: In total, 26 drug-assisted psychotherapy sessions with MDMA were administered during the trial. Temperature, blood pressure and heart rate were measured at t=0, before taking MDMA, then half-hourly up to t=2 hours, then hourly thereafter for a minimum of 6-hours from the time of dosing (see FIG. 7).
Subjective Units of Distress (SUDS) and Participant report of Drug Effects were also measured, hourly, throughout the MDMA sessions (see FIG. 7). […] Participants gave their own subjective score (0-10) of whether they felt Drug Effects, and the therapists also recorded their own objective score of how “altered” the participant appeared. There was no significant difference between Observers' and Participants' Drug Effects scores. Drug Effects rose expectedly over the first two hours, with a notable further increase after the booster dose was given at t=2 hours, and a subsequent plateau then decline over the following six hours.

For series [8] the following is noted: doses of 100-125 mg; cited from earlier work.
For the next series, the system named is individuals with PTSD. The note with it: cited from earlier work.
The conditions of series [9]: cited from earlier work. This is another data set of the same source.
Series [10] has as its system patients diagnosed with AUD. Put plainly: Depression and anxiety levels, FIG. 3 and FIG. 4. Format: in vivo, human. Particulars: patients remaining at 9 months; 100% at screening. On the procedure: Prior to undergoing the disclosed methods, specifically during the screening session, 12 patients were assessed for levels of depression. […] Directly after going through the detoxification process (noted as “baseline” in FIG. 3), one patient had mild depression, two had moderate depression, zero had moderately severe depression, and two had severe depression (out of 11 patients remaining in the study). The patients were then reassessed at 3, 6, and 9 months post-baseline (i.e., after completing a detoxification course, and prior to beginning the MDMA-assisted therapy regimen), wherein it was discovered that, at 3 months, two had mild depression, one had moderate depression, three had moderately severe depression, and one had severe depression (out of 9 patients remaining in the study); at 6 months, no patients suffered from mild or moderate depression, two had moderate severe depression, and one had severe depression (out of 6 patients remaining in the study); finally, at 9 months, one patient had mild depression, one had moderate depression, and one had moderate severe depression, with none having severe depression.
Prior to undergoing the disclosed methods, specifically during the screening session, 12 patients were assessed for levels of anxiety. […]

In series [11] the test system is patients with AUD. Put plainly: PHQ-9, GAD-7, psychosocial functioning and quality of life measures (Example 8). Type of series: in vivo, human.
For another series, the system named is alcohol relapse. The note with it: only in conjunction with psychosocial interventions; cited from earlier work.
The conditions of series [12]: cited from earlier work. This is another data set of the same source.
Setting [13] is: nine-month follow-up end point, of 14 participants.

The structures appear in SMILES notation. “Also recorded” adds a separate entry of the source. Where two headings read alike, the source gives them in different places.

`CCN(CC)C(=O)[C@@H]1C=C2c3cccc4[nH]cc(c34)C[C@H]2N(C)C1` [LSD]: the abstinence rates in the series with AUD is recorded as 30-50%.
Consider `CNC(C)Cc1ccc2c(c1)OCO2` (stereo not shown) [MDMA, 1-(1,3-benzodioxol-5-yl)-N-methylpropan-2-amine], for which, in the series on patients with AUD [1] (3 months post-detox vs pre-detox), the “decrease in alcohol consumption” value was found to be 87.1%. In the series on patients with AUD [1] (6 months post-detox vs pre-detox), the “decrease in alcohol consumption” value worked out at 71%. Moreover, the “units of alcohol per week” value in the series with patients with AUD [1] (6 months post-detox, 130.6 units per week pre-detox) is on record as 38.0 units of alcohol per week. Besides, in the series on patients with AUD [1] (9 months post-detox vs pre-detox), the “decrease in alcohol consumption” value is on record as 85.7%. The “average units of alcohol consumption per week” value in the series on patients with AUD [1] (9 months post-detox, 130.6 units per week pre-detox) is recorded as 18.7 units/week. In addition, the “outcomes of other comorbid addictions (SUDs and BAs)” value in the series on patients with AUD [1] (along the course of treatment) is “unexpectedly improved outcomes of other comorbid addictions”. Moreover, in the series with patients with AUD [1] (setting [13]), the “participants drinking fewer than 14 units of alcohol per week” value is listed as 11 participants, the “participants relapsed to drinking more than 14 units of alcohol per week” value is “three” and the “participants totally abstinent from alcohol” value is reported as “nine”. Also, the “participants drinking in excess of 14 units of alcohol a week” value in the series on patients with AUD [1] (over 9 months, 75% in the Outcomes Study without MDMA) was 21%. For the same compound, the POMS mood disturbance result in the series on patients with AUD [2] was “no evidence of any mood disturbance; also recorded: sustained a positive mood for seven days”. Moreover, the “time of peak subjective effects” value in series [3] (100 mg MDMA, healthy volunteers, brain imaging studies) was 100 min. In addition, the “duration of subjective effects” value in [3] (100 mg MDMA, healthy volunteers) is on record as “approximately 4.5 hours”. In [3] (Harris 2002), the “time of peak subjective effects” value is 90 to 120 min, the “time to return to baseline values” is 5 to 6 h and the “time to subjective effects” value was “approximately 45 mins”. Moreover, in series [3] (one dose), the duration of effects was 4 to 5 h. Also, the onset of action in series [3] (patients with PTSD, after the initial dose) was 45 to 75 min. The “time of peak drug effects” value in series [3] (patients with PTSD) was 2 to 5 h. In addition, the duration of effects in series [3] (with the booster dose) is 5 to 6 h. Besides, the serious adverse reaction result in series [4] (125 mg MDMA, third of three MDMA-assisted sessions, one individual) is “increased frequency of ventricular extrasystoles (PVCs)”. Further, the commonly reported effects entry in series [4] (Phase 1 studies in healthy volunteers) was “elevation in blood pressure and heart rate, increased anxiety or dysphoria, and dilated pupils”. The “C-SSRS suicidal ideation, intent or plans or self-harm behavior” value with patients with AUD [5] was “No participants reported current suicidal ideation, intent or plans or self-harm behavior”. Further, the “tolerability of MDMA treatment” value in the series on patients with AUD [6] (AUD post-detox, 187.5 mg each session) is given as “well-tolerated by all participants”. Further, the “desire to use illicit ecstasy/illicit MDMA” value in the series with patients with AUD [6] (following clinical MDMA) is on record as “No participants reported any desire to use illicit ecstasy/illicit MDMA”. Besides, in the series with patients with AUD [6] (in vivo), the psychotic symptoms entry was “No psychotic symptoms were observed”. The CYP3A4 activity result on CYP3A4 was “decrease in CYP3A4 activity”. Besides, in the series on patients with AUD [7] (26 sessions, except for one participant), the “temperature, blood pressure and heart rate during MDMA sessions” value is on record as “remained within normal limits”. Also, in the series on patients with AUD [7] (by the end of the MDMA session day), the “Drug Effects scores (0-10)” value was “all drug effects had returned to baseline”. In addition, the “Subjective Units of Distress (SUDS)” value with patients with AUD [7] (hourly during the MDMA session) is listed as “subsequently reduced during the course of the session”. Besides, in the series on patients with AUD [7] (in vivo), the “rise in blood pressure, temperature and heart rate over the course of the MDMA session” value was “mild, transient rise”. In addition, the neurocognitive impairments entry with patients with AUD [7] (weeks and months following participation) is reported as “No participants reported any significant neurocognitive impairments”. Further, in series [8], the “increase in diastolic blood pressure” value was 14.4-25 mmHg and the “increase in heart rate” value is on record as 26-30 bpm. Further, in the series with individuals with PTSD (12 subjects, Oehen 2013), the “effect size, self-reported improvement” value is 1.1. Also, the “symptom relief, long-term follow-up” value in the series on individuals with PTSD (chronic, treatment-resistant PTSD, Mithoefer 2010, 2013) is “statistically and clinically-significant gains in symptom relief with no subjects reporting harm”. Also, the safety and tolerability result in the series on individuals with PTSD (phase 3, severe PTSD, even with comorbidities) was “safe and well-tolerated”. For the same compound, the “efficacy vs therapy with inactive placebo” value in the series with individuals with PTSD (phase 3, severe PTSD, Mitchell 2021) is recorded as “highly efficacious”. The “time to peak plasma concentration” value in series [9] (humans, doses 100-125 mg) was 2 to 3 h. In addition, the elimination half-life in series [9] (similar results for doses 50-125 mg) was 7 to 9 h. In series [10], the “patients found to have anxiety” value is “about 67%” and the “patients found to have depression” value was 50%. Further, the “PHQ-9 and GAD-7 scores” value in the series with patients with AUD [11] (after screening and baseline time points) was “reduction in both anxiety and depression”. Further, in the series with patients with AUD [11] (in vivo), the psychosocial functioning result was “improved across the cohort”; the “quality of sleep, quality of life, compassion and empathy scales” value was “demonstrating benefits and improvements”.
For the compound `CC(=O)NCCCS(=O)(=O)O` [acamprosate], in the series on alcohol relapse, the “effect in relapse prevention” value is “only minor positive effects in relapse prevention”.
With `O=C1CC[C@@]2(O)[C@H]3Cc4ccc(O)c5c4[C@@]2(CCN3CC2CC2)[C@H]1O5` [naltrexone], the “effect in relapse prevention” value with alcohol relapse was “only minor positive effects in relapse prevention”.
Take `CNC(C)Cc1ccc2c(c1)OCO2` (stereo not shown) [MDMA base]: the solubility in water entry in series [12] is reported as “insoluble in water”.
